Experiment: gradient 5% acetonitrile 3 min, to 50% in 2 min, to 85% in 15 min, held 3 min, 100 µL/min
Conditions: column: Zorbax Extend-C18 2.1 x 50 mm; eluents: water / acetonitrile, 0.1% formic acid
Summary of the method: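 Mixtures of ~100 pure standards were chromatographed on a Zorbax Extend-C18 column (2.1 × 50 mm, 1.8 μm) at 100 μL/min using water and acetonitrile, each with 0.1% formic acid. Detection used a quadrupole time-of-flight mass spectrometer in positive and negative ionization mode, and data collection spanned 3 months. Retention time was obtained from adduct peaks picked computationally and each checked manually.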

Row | RP-LC retention time | SMILES
1 | 596 s | COc1ccc(NC(=O)Cn2ncc3c(N4CCN(c5ccccn5)CC4)ncnc32)cc1
2 | 858 s | Cc1nnc(-c2cc(NC(=O)c3ccccc3Br)c(C)s2)o1
3 | 719 s | O=C(CC1=C2CCCCC2NC1=O)Nc1cccc(F)c1 (stereo not drawn)
4 | 583 s | CCOc1ccc(C2=NC3(CCN(CC)CC3)NC(c3ccccc3O)C2)cc1 (stereo not drawn)
5 | 780 s | CCOc1ccccc1CNC(=O)C1CCN(Cc2c(C)n(CC)c3ccccc23)CC1
6 | 757 s | O=C(Nc1nnc(-c2ccno2)o1)C1CCCN(S(=O)(=O)c2ccc(Cl)s2)C1 (stereo not drawn)
7 | 773 s | O=C(Cn1ccc2ccc(N3CCOCC3)nc21)NCc1ccco1
8 | 751 s | CCc1ccccc1NC(=O)N1CCC(c2cc(N)on2)CC1
9 | 887 s | CCc1ccc(NC(=O)N2C[C@@H](F)C[C@H]2C(=O)N2CCc3ccccc3C2)cc1
10 | 967 s | CCN1C(=O)c2ccccc2Oc2ccc(C(=O)NC3CCCCC3)cc21
11 | 618 s | N#Cc1ccc(CN2C[C@@H]3C(=O)N(CCN4CCc5ccccc5C4)C(=O)[C@@H]3C2)cc1
12 | 758 s | O=C(NCc1csc(-c2ccccc2)n1)C1CCN(S(=O)(=O)c2ccc3[nH]c(=O)oc3c2)CC1
13 | 1090 s | COc1ccc(-n2ncc3c(=O)n(Cc4nc(-c5ccc(C(F)(F)F)cc5)no4)cnc32)cc1
14 | 653 s | CC(=O)Nc1ccc(S(=O)(=O)N2CCN(S(=O)(=O)N(C)C)CC2)cc1
15 | 844 s | CCN1CCN(Cc2ccc(NC(=O)c3ccc(C)c(NC(=O)c4cncc(-c5cccs5)c4)c3)cc2C(F)(F)F)CC1
16 | 874 s | Cc1ccc(N2C(=O)CN(S(C)(=O)=O)CC2(C)C(=O)NCc2ccc(Cl)cc2)cc1C (stereo not drawn)
17 | 711 s | O=C(CCS(=O)(=O)c1ccccc1)N1CCN(CC(F)(F)F)CC1
18 | 942 s | Cc1cccc(NS(=O)(=O)c2cc3c(s2)CCN(C(=O)C2CCC2)C3)c1C
19 | 859 s | CSc1ccccc1NC(=O)c1cc(=O)c(OCc2ccc(F)cc2)co1
20 | 954 s | CO[C@@H]1[C@H](OC(=O)/C=C/C=C/C=C/C=C/C(=O)O)CC[C@]2(CO2)[C@H]1[C@@]1(C)O[C@@H]1CC=C(C)C
21 | 541 s | COc1cccc(CNC(=O)c2cn3cccc(C)c3n2)c1OC
22 | 660 s | CC1CCN(CC2CCCN(C(=O)C3(c4ccccc4)CC3)CC2)CC1 (stereo not drawn)

Row | RP-LC retention time | SMILES
23 | 673 s | Cc1cc(C)c2[nH]c3c(c(=O)c2c1)CN(CC(=O)Nc1cc(F)cc(F)c1)CC3
24 | 757 s | O=C(C1CCN(Cc2cc3ccccc3n2Cc2ccccc2)CC1)N1CCCCC1
25 | 916 s | CCCn1ccc2sc(C)c(C(=O)N3CCN(c4ccccc4F)CC3)c2c1=O
26 | 993 s | COCCN1CCCc2ccc(NC(=O)c3cccc(Br)c3)cc21
27 | 815 s | O=C(NC1CCCCC1)c1ccc(-n2cccn2)nc1
28 | 921 s | CCn1c(=O)sc2cc(S(=O)(=O)N3CCC(C(=O)Nc4ccc(F)cc4F)CC3)ccc21
29 | 777 s | CCOc1ccccc1NC(=O)C1CCc2nc(N3CCOCC3)ncc2C1 (stereo not drawn)
30 | 614 s | Cc1cccc(OCC(=O)N2CCN(c3cc(C)n4c(C)nnc4n3)CC2)c1
31 | 822 s | Clc1ccc(-c2nc(N3CCC4(CC3)OCCO4)c3ccccc3n2)cc1
32 | 689 s | CCC(Sc1nncn1C)C(=O)Nc1nnc(-c2cccc([N+](=O)[O-])c2)s1 (stereo not drawn)
33 | 602 s | CN(CC(=O)N1CCN(C2CCCCC2)CC1)S(=O)(=O)c1ccc2c(c1)CCCC(=O)N2
34 | 1460 s | CCOc1ccc(C2c3[nH]c4ccccc4c3CCN2C(=O)CCC2CCCC2)cc1 (stereo not drawn)
35 | 826 s | COc1ccccc1NC(=O)Cn1nc2cc(C)nc(-c3cccc(F)c3)n2c1=O
36 | 1310 s | CC(C)(C)c1ccc(S(=O)(=O)N2CCCC2c2nc(-c3ccc(F)cc3)no2)cc1 (stereo not drawn)
37 | 540 s | O=C(NCc1cccnc1)C1(c2ccccc2)CCOCC1
38 | 912 s | Cc1ccc(C)c(C(=O)N2CCC(COc3ccc(C(=O)NC(C)C)cc3)CC2)c1
39 | 987 s | CC(C)Sc1cc2c(cc1NC(=O)Cc1cccc(F)c1)n(C)c(=O)n2C
40 | 917 s | O=C1CC(c2noc(C3CCCC3)n2)CN1c1ccccc1 (stereo not drawn)
41 | 878 s | Cc1ccc(-n2nc3c(=O)n(C(C)C(=O)NCc4ccc5c(c4)OCO5)nc(C)c3c2C)cc1 (stereo not drawn)
42 | 713 s | Cc1cc(Cl)ccc1S(=O)(=O)NCC1CN(C)CC12CCCCC2 (stereo not drawn)
43 | 596 s | COCC(C)(O)CNC(=O)NC1CCCCC1 (stereo not drawn)
44 | 1190 s | COc1ccccc1NC(=O)c1csc2c1CCCC2

Row | RP-LC retention time | SMILES
45 | 794 s | CCn1c(=O)c2c(cc(C)n2C)n(CC(=O)Nc2ccc(OC)c(Cl)c2)c1=O
46 | 687 s | COc1ccccc1CN1CCc2nc(N3CCN(c4ccccc4OC)CC3)ncc2C1
47 | 722 s | COc1ccc(C(C)NC(=O)CCc2nnc3c4cc(-c5ccc(F)cc5)nn4ccn23)cc1OC (stereo not drawn)
48 | 805 s | Cc1cccc(NC(=O)C2CCCN2S(=O)(=O)c2ccc3c(c2)NC(=O)CO3)c1C (stereo not drawn)
49 | 931 s | O=C(Cc1ccsc1)N1CCCn2nc(-c3ccc(Cl)cc3)cc2C1
50 | 1110 s | Cc1ccc(NC(=O)Cn2cc3c(n2)CCC(C)C3)c(Cl)c1 (stereo not drawn)
51 | 735 s | Cc1cccc(NC(=O)C2CCCN(c3cc(=O)n(C)c(=O)n3C)C2)c1 (stereo not drawn)
52 | 1230 s | CC1CCN(S(=O)(=O)c2ccc(C(=O)Nc3nc4c(s3)Cc3ccccc3-4)cc2)CC1
53 | 904 s | COC(=O)C1=CN(C2CC2)c2cc(N3CCN(c4ccccc4OC)CC3)c(F)cc2S1(=O)=O
54 | 570 s | CS(=O)(=O)N1CCN(CCNC(=O)NCc2cccc3ccccc23)CC1
55 | 768 s | COc1cc(NC(=O)NC2CCN(c3ccccc3)C2=O)cc(OC)c1 (stereo not drawn)
56 | 977 s | COc1ccc(OC)c(-c2ccc(=O)n(CCc3nc(-c4ccc(F)cc4)no3)n2)c1
57 | 581 s | CCCCN1CCN(C(=O)c2nc(N3CCSCC3)c3c(C)cc(C)nc3n2)CC1
58 | 572 s | O=C(NC1CC1)[C@@H]1OCCN(C2CC2)[C@H]1c1ccccc1
59 | 1030 s | O=S(=O)(c1ccc2c(c1)-c1oncc1CO2)N1CCN(c2ccccc2)CC1
60 | 716 s | Cc1nc2ccc(NC(=O)Cc3ccc4c(c3)OCO4)cc2s1
61 | 1060 s | COc1ccc(S(=O)(=O)N2CCCC(C(=O)Nc3cccc(SC)c3)C2)cc1Cl (stereo not drawn)
62 | 867 s | COc1ccccc1C1(CNC(=O)Nc2cccc(Cl)c2)CCOCC1
63 | 1010 s | CCN1CCN(c2nccc(-c3cnc4nc(-c5ccc(Cl)cc5)nn4c3C)n2)CC1
64 | 688 s | CCCC(=O)N1CCC2(CC1)NC(=O)c1ccccc1O2
65 | 534 s | Cc1cc(=O)n(CC(=O)N2CCOCC2)c(N2CCOCC2)n1
66 | 576 s | O=C(NCCCN1CCOCC1)C1CCc2sc(C(=O)N3CCCC3)cc2C1 (stereo not drawn)

Row | RP-LC retention time | SMILES
67 | 833 s | CCc1ccc(NC(=O)N2CCC(CC(=O)N3CCCCC3)CC2)cc1
68 | 963 s | O=C(NCCc1csc(-c2cccs2)n1)C1CCN(S(=O)(=O)c2ccc(Cl)cc2)CC1
69 | 742 s | Cc1noc(-c2cccnc2N2CCN(C(c3ccccc3)c3ccccc3)CC2)n1
70 | 614 s | CCn1nccc1C(=O)NC(C)(C)c1nc2c(c(C(N)=O)n1)OCO2
71 | 1090 s | Cc1nc2c(sc3nc(-c4ccccc4)ccc32)c(=O)n1CC(=O)Nc1ccccc1Cl
72 | 945 s | CC1CCC(NC(=O)CN2C(=O)CCCc3cc(S(=O)(=O)N4CCCCC4)ccc32)CC1 (stereo not drawn)
73 | 916 s | O=C(O)c1ccc(OCCOc2ccccc2)cc1
74 | 847 s | Cc1oc(C2CCN(C(=O)c3cc4ccccc4[nH]3)CC2)nc1C(=O)N1CCSCC1
75 | 621 s | Oc1ccc(-c2csc(Nc3ccccn3)n2)cc1O
76 | 757 s | Cc1ccc(CNC(=O)Cn2ncc3c(c2=O)N(C2CC2)C(=O)CS3)cc1C
77 | 702 s | CCC(C(=O)N1CCN(c2cc(=O)n(C)c(=O)n2C)CC1)N1C(=O)COc2ccccc21 (stereo not drawn)
78 | 625 s | O=C(CCc1nnn2c1CN(C(=O)Nc1ccc3c(c1)OCCO3)CC2)N1CCCC1
79 | 717 s | COc1ccc(NC(=O)Cn2c(N3CCCCC3)nc(C)cc2=O)cc1F
80 | 583 s | Cc1cc(Nc2ccc(NC(=O)c3sc(C)nc3C)cc2)nc(N2CCCC2)n1
81 | 822 s | O=C(c1ccc(F)c(F)c1Nc1ccc(I)cc1F)N1CC(O)([C@H]2CCCCN2)C1
82 | 645 s | CCC(C)NC(=O)CCC(=O)N1CCc2c(c(C(=O)N3CCCCC3)nn2C)C1 (stereo not drawn)
83 | 688 s | CC(Cc1ccco1)NC(=O)Cn1c(=O)c(=O)n(C)c2ncccc21 (stereo not drawn)
84 | 843 s | CC1CCN(C(=O)C2CCc3sc(C(=O)N4CCCC4)cc3C2)CC1 (stereo not drawn)
85 | 747 s | O=C1CC(C(F)(F)F)c2c(c(C(=O)O)cn2-c2cccc(F)c2)N1 (stereo not drawn)
86 | 612 s | Cc1nc2cccnc2n1C1CCN(C(=O)Nc2ccc3c(c2)OCCO3)CC1
87 | 561 s | c1cc(CN2CCCCC2c2nncn2CC2CC2)co1 (stereo not drawn)

Row | SMILES | RP-LC retention time
88 | COc1ccc2c(c1)C1(CCN(S(=O)(=O)c3ccc(F)cc3F)C1)C(=O)N2 (stereo not drawn) | 841 s

Source: the METLIN SMRT retention time set (Domingo-Almenara et al. 2019)
